Laboratory results reported in ChEMBL document CHEMBL1154376, “Anomalous microbial transformations on the taxane ring of 10-DAB by a strain of the fungus Curvularia lunata: transbenzoylation, transacetylation, and opening of the oxetane ring” (J Nat Prod, 2009).
pIC50: −log10 of the molar value.

tested on: NCI-H460; experiment: Cytotoxicity against human H460 cells; type: functional, cell-based

Point of comparison: `C=C1[C@H]2C[C@@]3(OC(=O)c4ccccc4)C(=O)[C@@H]4[C@]5(OC(C)=O)CO[C@@H]5C[C@H](O)[C@@]4(C)[C@H](O)[C@@](O)(O2)[C@@H]1C3(C)C`, pIC50 4.29. Against it:
- C=C1[C@H]2C[C@@]3(OC(=O)c4ccccc4)C(=O)[C@@H]4[C@](O)(COC(C)=O)[C@@H](O)C[C@H](O)[C@@]4(C)[C@H](O)[C@@](O)(O2)[C@@H]1C3(C)C — 0.27 log units lower, 4.02
- CC(=O)O[C@@]12CO[C@@H]1C[C@H](O)[C@@]1(C)C(=O)[C@H](O)C3=C(C)[C@@H](O)C[C@@](O)([C@@H](OC(=O)c4ccccc4)[C@H]21)C3(C)C — 1.22 log units higher, 5.51
- CC(=O)O[C@@]12CO[C@@H]1C[C@@H](O)[C@@]1(C)C(=O)C(=O)C3=C(C)[C@@H](O)C[C@@](O)([C@@H](OC(=O)c4ccccc4)[C@H]21)C3(C)C — within 0.2 log units, 4.22
